Source: patent US8106052B2, “Luminescence-based methods and probes for measuring cytochrome P450 activity” (Promega Corporation, priority 2002, dated 2012)
Like-named read-outs stand apart in the source and are kept apart here.

Assays:
[1] = tested on: pooled human liver microsomes; experiment: Pooled human liver microsomes in two-step luminescent CYP450 reaction; conditions: for Effect on activity against Luc BE: substrate Luc BE, ketoconazole 100 micromolar; for CYP450 activity detected with the substrate compared to Sf9 cell membranes: pooled human liver microsomes, 60 minutes at 37° C.
Method: FIG. 8. Pooled human liver microsomes in two-step luminescent CYP450 reactions. D-luciferin derivatives were incubated in a CYP450 reaction mix with pooled human liver microsomes for 60 minutes at 37° C. before combining with a luciferase reaction mixture. For controls liver microsomes were replaced with control (no CYP450) Sf9 cell membranes. Luminescence was read within 12 minutes of combining the reactions on a Berthold Orion luminometer. […] Values labeled “nt” are vehicle controls.
(§1) In this Example, a procedure for a two-step CYP450/luciferase assay is provided. Luciferin derivatives were evaluated as P450 substrates and luciferase pro-substrates using this procedure. 20 microliter CYP450 reactions were prepared at pH 7.4 in an amount of KPO4 buffer that is optimal for a given CYP450 isoform (100 mM for CYP1A1, CYP1A2, CYP2B6, CYP2D6 and CYP2E1; 50 mM for CYP2C8 and CYP2C19; 25 mM for 2C9 and for pooled human liver microsomes; 200 mM for CYP3A4). For CYP2A6 100 mM Tris at pH 7.5 was substituted for KPO4. […] Reactions were initiated by addition of 0.4 pmoles recombinant human CYP450 co-expressed with CYP450 reductase in Sf9 cell microsomal membranes or 4 microgram pooled human liver microsomes and incubation at 37° C. After an initial incubation period at 37° C. 20 microliter CYP450 reactions were mixed with an 80 microliter luciferase reaction mix. […] Assays were also performed using 50 microliter CYP450 and luciferase reaction volumes (e.g., FIG. 3, panel B, table 3). Light output was measured immediately in a Turner Reporter, Turner 20/20 or Berthold Orion luminometer. Because the calibration of instruments from different manufacturers varies the quantitation of light output is instrument-specific and direct comparisons between instruments cannot be made.

CYP1A2 = molecular target: T1, CYP1A2 (Homo sapiens, UniProt P05177); experiment: Two-step CYP450/luciferase reaction, luciferin derivative evaluation as substrate; conditions: CYP450 incubation 60 minutes at 37° C., then luciferase
T1 sequence (P05177 1-516): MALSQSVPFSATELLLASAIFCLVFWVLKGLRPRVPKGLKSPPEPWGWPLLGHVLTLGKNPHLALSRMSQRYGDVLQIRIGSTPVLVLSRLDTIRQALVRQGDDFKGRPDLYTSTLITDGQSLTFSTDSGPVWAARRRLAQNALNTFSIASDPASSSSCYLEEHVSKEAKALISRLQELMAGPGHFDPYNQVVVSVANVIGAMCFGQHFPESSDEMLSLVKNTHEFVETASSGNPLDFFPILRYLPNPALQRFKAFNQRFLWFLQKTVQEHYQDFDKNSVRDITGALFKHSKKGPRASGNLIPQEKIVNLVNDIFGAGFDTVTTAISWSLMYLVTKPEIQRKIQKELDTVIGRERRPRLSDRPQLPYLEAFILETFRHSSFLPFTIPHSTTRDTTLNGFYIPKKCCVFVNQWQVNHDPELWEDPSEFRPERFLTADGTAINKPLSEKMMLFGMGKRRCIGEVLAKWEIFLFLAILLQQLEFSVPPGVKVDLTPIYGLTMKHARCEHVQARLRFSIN
Method: as §1
(§2) O-dealkylation and hydroxylation are common CYP450 catalyzed xenobiotic transformations (9). […] The CYP450 activities tested are contained in microsome fractions from insect cells that over-express a single recombinant human CYP450 isoform in combination with NADPH CYP450 reductase. It was reasoned that if CYP450s dealkylated or hydroxylated the luciferin derivatives at the 6′ position, authentic luciferin would be generated that could be detected enzymatically in a light generating firefly luciferase reaction as described by the equation in FIG. 1.
(§3) The panel included CYP1A1, CYP1A2, CYP2A6, CYP2B6, CYP2C8, CYP2C9, CYP2C19, CYP2D6, CYP2E1 and CYP3A4. After an initial incubation with CYP450, luciferase and its requisite cofactors were added and light output was monitored (FIGS. 3 and 9).

CYP2C9 [2] = molecular target: T2, CYP2C9 (Homo sapiens, UniProt P11712); experiment: as above; conditions: for Light output over controls with CYP2C9: CYP450 incubation 60 minutes at 37° C., then luciferase
Method: as §1, §2, §3
Target sequence in this assay (P11712 whole entry): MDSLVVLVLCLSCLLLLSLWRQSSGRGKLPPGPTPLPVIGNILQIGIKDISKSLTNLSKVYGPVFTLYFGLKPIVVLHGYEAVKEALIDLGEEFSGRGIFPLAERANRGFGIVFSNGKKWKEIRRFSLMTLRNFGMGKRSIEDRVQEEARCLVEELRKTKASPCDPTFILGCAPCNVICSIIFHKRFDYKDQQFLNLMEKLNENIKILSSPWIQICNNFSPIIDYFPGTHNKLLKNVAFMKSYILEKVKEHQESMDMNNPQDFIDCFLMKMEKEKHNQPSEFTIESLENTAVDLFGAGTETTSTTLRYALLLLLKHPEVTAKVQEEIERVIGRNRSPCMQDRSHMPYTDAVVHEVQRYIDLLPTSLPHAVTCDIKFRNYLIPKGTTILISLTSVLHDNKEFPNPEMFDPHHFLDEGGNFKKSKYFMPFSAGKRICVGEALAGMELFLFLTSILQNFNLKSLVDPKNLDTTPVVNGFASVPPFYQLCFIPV

CYP2C9 [3] = molecular target: T2, CYP2C9; experiment: CYP450-catalyzed conversion of luciferin derivatives to luciferin (HPLC); assay type: biochemical; conditions: 100 micromolar, 37 C, HPLC with fluorescence detection
Target sequence in this assay (P11712 whole entry, species assumed): as the sequence (P11712 whole entry) above

CYP2C9 [4] = molecular target: T2, CYP2C9; experiment: One-step CYP450/luciferase reaction; assay type: biochemical; parameters: purchased GenTest (Woburn, Mass.); host or cells: Sf9 insect cells; conditions: 37° C.
Method: (§4) Luciferin derivatives were evaluated as P450 substrates and luciferase pro-substrates using this procedure.
Target sequence in this assay (P11712 whole entry): as above

CYP2C8 = molecular target: T3, CYP2C8 (Homo sapiens, UniProt P10632); conditions: CYP450 incubation 60 minutes at 37° C., then luciferase
T3 sequence (P10632 1-490): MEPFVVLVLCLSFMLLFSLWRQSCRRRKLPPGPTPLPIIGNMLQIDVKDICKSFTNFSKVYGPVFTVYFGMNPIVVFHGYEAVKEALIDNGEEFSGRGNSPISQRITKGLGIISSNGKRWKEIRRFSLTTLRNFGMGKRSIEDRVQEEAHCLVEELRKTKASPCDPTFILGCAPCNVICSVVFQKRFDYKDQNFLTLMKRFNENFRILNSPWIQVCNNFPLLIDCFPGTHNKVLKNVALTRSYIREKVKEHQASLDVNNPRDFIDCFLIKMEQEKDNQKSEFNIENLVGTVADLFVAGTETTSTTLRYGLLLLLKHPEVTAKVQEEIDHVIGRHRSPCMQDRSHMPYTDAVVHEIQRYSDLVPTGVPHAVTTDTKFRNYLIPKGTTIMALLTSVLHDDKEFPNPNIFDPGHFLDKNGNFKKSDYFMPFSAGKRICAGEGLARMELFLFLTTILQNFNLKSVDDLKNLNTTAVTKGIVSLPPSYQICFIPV
Method: as §1, §2, §3

CYP3A4 [5] = molecular target: T4, CYP3A4 (Homo sapiens, UniProt P08684)
T4 sequence (P08684 whole entry): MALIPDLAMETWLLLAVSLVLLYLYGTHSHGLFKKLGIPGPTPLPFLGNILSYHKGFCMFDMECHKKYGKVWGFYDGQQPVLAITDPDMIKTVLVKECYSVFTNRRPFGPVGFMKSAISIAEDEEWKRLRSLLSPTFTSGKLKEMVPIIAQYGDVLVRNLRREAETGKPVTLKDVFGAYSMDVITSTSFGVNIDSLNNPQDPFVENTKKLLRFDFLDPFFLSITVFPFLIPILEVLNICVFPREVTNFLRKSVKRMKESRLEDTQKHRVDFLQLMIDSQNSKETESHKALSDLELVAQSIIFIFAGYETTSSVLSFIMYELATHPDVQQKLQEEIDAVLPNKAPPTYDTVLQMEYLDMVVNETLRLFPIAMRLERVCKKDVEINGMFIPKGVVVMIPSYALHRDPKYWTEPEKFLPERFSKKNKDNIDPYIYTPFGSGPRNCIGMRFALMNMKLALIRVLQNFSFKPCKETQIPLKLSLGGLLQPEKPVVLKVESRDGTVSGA
Method: as §1, §2, §3

CYP3A4 [6] = molecular target: T4, CYP3A4; experiment: One-step CYP450/luciferase reaction; conditions: 37° C.
Method: as §4

CYP1A1 [7] = molecular target: T5, CYP1A1 (Homo sapiens, UniProt P04798); conditions: CYP450 incubation 60 minutes at 37° C., then luciferase
T5 sequence (P04798 1-512): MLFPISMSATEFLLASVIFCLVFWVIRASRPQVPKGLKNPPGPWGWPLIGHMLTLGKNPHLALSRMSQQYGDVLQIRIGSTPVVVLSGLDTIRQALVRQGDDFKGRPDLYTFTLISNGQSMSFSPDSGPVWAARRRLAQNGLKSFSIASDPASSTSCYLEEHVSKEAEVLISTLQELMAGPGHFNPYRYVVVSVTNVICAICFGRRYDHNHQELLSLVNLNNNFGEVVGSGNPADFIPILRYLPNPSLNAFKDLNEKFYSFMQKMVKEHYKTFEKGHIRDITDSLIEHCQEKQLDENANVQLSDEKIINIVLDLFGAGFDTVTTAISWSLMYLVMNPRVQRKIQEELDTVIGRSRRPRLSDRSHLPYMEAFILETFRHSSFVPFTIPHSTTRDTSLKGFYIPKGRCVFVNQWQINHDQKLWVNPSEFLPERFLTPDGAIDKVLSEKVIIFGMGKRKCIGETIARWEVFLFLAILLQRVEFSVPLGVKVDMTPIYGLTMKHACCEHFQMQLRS
Method: as §1, §2, §3

CYP1A1 [8] = molecular target: T5, CYP1A1; experiment: CYP450-catalyzed conversion of luciferin derivatives to luciferin (HPLC); conditions: 100 micromolar, 37 C, HPLC with fluorescence detection
Method: At various time intervals, the reactions were stopped by the addition of Tergitol to 0.1% (v/v) and flash freezing in liquid nitrogen. 95 microliter aliquots of each reaction mixture were subjected to fractionation by HPLC. […] Separation was achieved on a 5 micron Adsorbosphere HS C18 column (Alltech Associates) with a solvent gradient of 0.05M KH2PO4/pH 6 (solvent A) and 80:20 acetonitrile/water (solvent B). The gradient conditions used were 15% B to 95% B over 10 min.

[9] = alpha-naphthoflavone 10 micromolar
[10] = two-step, 37° C., up to 60 minutes

## O=c1cc(-c2ccccc2)oc2c1ccc1ccccc12 [Alpha-Naphpthoflavone, alpha-naphthoflavone]
[1]; [9]
  Effect on activity against Luc BE: slight stimulation
[1]; substrates H-Luc, Luc ME, Luc EE, Luc BE, alpha-naphthoflavone 10 micromolar
  Inhibition of microsomal light output: lack of inhibition

## O=C(O)C1CSC(c2nc3ccccc3s2)=N1 (stereo not drawn) [H-Luc, 6′-Deoxyluciferin]
CYP1A2
  Light output over controls with CYP1A2: increased light output over controls
CYP2C9 [2]
  Light output over controls with CYP2C9: increased light output over controls
CYP2C9 [2]; [10]
  Time-dependence of light output on CYP2C9/substrate incubation: increased in a linear fashion for up to 60 minutes
CYP2C9 [3]
  Conversion to luciferin by CYP2C9: confirmed
[1]
  CYP450 activity detected with the substrate compared to Sf9 cell membranes: significant amounts of CYP450 activity was detected
CYP2C9 [4]
  Light output over time, one-step with CYP2C9: increasing to a maximum by about 30 minutes and declining thereafter

## CC(=O)N1CCN(c2ccc(OCC3COC(Cn4ccnc4)(c4ccc(Cl)cc4Cl)O3)cc2)CC1 (stereo not drawn) [Ketoconazole, ketoconazole]
[1]; substrate H-Luc, sulfaphenazole and ketoconazole 100 micromolar
  Inhibition of light output with H-Luc: Partial inhibition
[1]; [9]
  Effect on activity against Luc BE: Inhibition

## O=C(O)[C@H]1CSC(c2nc3ccc(OCc4ccccc4)cc3s2)=N1 [Luc BE, Luciferin 6′-benzyl ether]
CYP2C9 [2]
  Light output over controls with CYP2C9: increased significantly
CYP2C8
  Light output over controls with CYP2C8: increased significantly
CYP3A4 [5]; CYP450 incubation 60 minutes at 37° C., then luciferase
  Light output over controls with CYP3A4: increased significantly
CYP3A4 [5]; [10]
  Time-dependence of light output on CYP3A4/substrate incubation: increased in a linear fashion for up to 60 minutes
CYP3A4 [6]
  Difference in light output to -CYP450 control, one-step with CYP3A4: modest
[1]
  CYP450 activity detected with the substrate compared to Sf9 cell membranes: significant amounts of CYP450 activity was detected

## O=C(O)[C@H]1CSC(c2nc3ccc(OCCCl)cc3s2)=N1 [Luc CEE, Luciferin 6′-(2-chloroethyl)ether]
CYP1A2
  Light output over controls with CYP1A2: increased significantly
CYP2C9 [2]
  Light output over controls with CYP2C9: increased significantly
CYP1A1 [7]
  Light output over controls with CYP1A1: increased significantly
CYP2C8
  Light output over controls with CYP2C8: increased significantly
CYP1A1 [8]
  Conversion to luciferin by CYP1A1: confirmed

## CCOc1ccc2nc(C3=N[C@@H](C(=O)O)CS3)sc2c1 [Luc EE, luciferin 6′ ethyl ether]
CYP1A2
  Light output over controls with CYP1A2: increased significantly
CYP2C9 [2]
  Light output over controls with CYP2C9: increased significantly
CYP1A1 [7]
  Light output over controls with CYP1A1: increased significantly
CYP2C8
  Light output over controls with CYP2C8: increased significantly
[1]
  CYP450 activity detected with the substrate compared to Sf9 cell membranes: significant amounts of CYP450 activity was detected

## Nc1ccc(S(=O)(=O)Nc2ccnn2-c2ccccc2)cc1 [Sulfaphenazole, sulfaphenazole]
[1]
  Inhibition of light output with H-Luc: near complete inhibition
